# Measurements reported in ChEMBL document CHEMBL1142790, “Carbonic anhydrase inhibitors: inhibition of the transmembrane isozyme XIV with sulfonamides” (Bioorg Med Chem Lett, 2005).
# Target: Carbonic anhydrase 14 (Homo sapiens, UniProt Q9ULX7)
# Sequence (Q9ULX7 whole entry): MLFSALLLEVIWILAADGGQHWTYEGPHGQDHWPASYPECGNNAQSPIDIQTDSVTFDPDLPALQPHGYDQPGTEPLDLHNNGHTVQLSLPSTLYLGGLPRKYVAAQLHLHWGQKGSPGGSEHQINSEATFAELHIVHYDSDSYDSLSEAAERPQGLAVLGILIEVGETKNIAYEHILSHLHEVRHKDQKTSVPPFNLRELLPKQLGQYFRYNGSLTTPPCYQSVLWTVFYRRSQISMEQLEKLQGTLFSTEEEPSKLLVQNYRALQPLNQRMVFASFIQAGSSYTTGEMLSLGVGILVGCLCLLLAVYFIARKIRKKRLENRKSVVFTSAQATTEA
row,SMILES,Ki [nM]
1,NCc1ccc(S(N)(=O)=O)cc1 [MAFENIDE],3200
2,Nc1nccc(Nc2ccc(S(N)(=O)=O)cc2)n1,89
3,NS(=O)(=O)c1ccc(C(=O)O)cc1 [CARZENIDE],780
4,Nc1ccc(S(N)(=O)=O)cc1Cl,21
5,NNc1ccc(S(N)(=O)=O)cc1,1450
6,NS(=O)(=O)c1ccc(CCO)cc1,3260
7,NS(=O)(=O)c1ccc(CO)cc1,3840
8,Nc1ccc(S(=O)(=O)NCCc2ccc(S(N)(=O)=O)cc2)cc1,76
9,CCN[C@H]1CN(CCCOC)S(=O)(=O)c2sc(S(N)(=O)=O)cc21 [BRINZOLAMIDE],24

# Results, then the molecule that gave them:
row,Ki [nM],SMILES
1,5400,Nc1ccc(S(N)(=O)=O)cc1 [SULFANILAMIDE]
2,180,Nc1ccc(S(N)(=O)=O)cc1F
3,6500,Nc1ccccc1S(N)(=O)=O
4,4800,Nc1cccc(S(N)(=O)=O)c1
5,280,Nc1nnc(S(N)(=O)=O)s1
6,245,Cn1nc(S(N)(=O)=O)sc1=N
7,15,Nc1ccc(S(N)(=O)=O)cc1Br
8,13,Nc1ccc(S(=O)(=O)Nc2nnc(S(N)(=O)=O)s2)cc1

# Target: Carbonic anhydrase 12 (Homo sapiens, UniProt O43570)
# Sequence (O43570 whole entry): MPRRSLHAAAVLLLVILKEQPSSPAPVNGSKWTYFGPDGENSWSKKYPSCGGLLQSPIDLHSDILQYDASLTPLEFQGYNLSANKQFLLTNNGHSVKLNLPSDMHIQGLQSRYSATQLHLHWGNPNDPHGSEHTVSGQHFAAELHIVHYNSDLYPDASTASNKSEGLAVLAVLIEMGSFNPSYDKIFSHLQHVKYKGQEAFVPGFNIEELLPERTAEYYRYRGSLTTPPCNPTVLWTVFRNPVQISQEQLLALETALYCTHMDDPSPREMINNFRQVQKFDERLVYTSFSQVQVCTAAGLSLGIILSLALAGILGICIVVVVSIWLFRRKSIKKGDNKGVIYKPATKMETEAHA
row,Ki [nM],SMILES
1,11,NNc1ccc(S(N)(=O)=O)cc1
2,85,Nc1ccccc1S(N)(=O)=O
3,125,Nc1cccc(S(N)(=O)=O)c1
